Test system: 422866-222-R5-J1-PDC complex spheroids viability
Experiment: Anticancer human tumor 422866-222-R5-J1-PDC patient-derived pancreatic adenocarcinoma cell line growth inhibition [RAS]
Conditions: for IC50: curve of first compound; for viability, T/C: stronger effect = lower value
Description: RAS pathway inhibitors in Combinations in Complex Spheroids
A high-throughput screen of multi-cell type tumor spheroids was designed to identify active combinations of RAS pathway inhibitors and targeted small molecules. Complex spheroids include a stromal component modeled by human endothelial cells (HUVEC) and fibroblasts modeled by human mesenchymal stem cells (MSCs). The concentration ranges selected for each drug and investigational agent were based upon clinically achievable concentrations if the clinical Cmax of the agent was known.
Compounds. The drugs and investigational agents: abemaciclib (NSC768073), cobimetinib (NSC768068), divarasib (GDC6063, NSC841802), docetaxel (NSC628503), GDC-1971 (RLY-1971, NSC841576), gemcitabine (NSC613327), inavolisib (NSC800729), ipatasertib (NSC767898), KB-0742 (NSC834161), MRTX-1133 (NSC836407), osimertinib (NSC779217), RMC-4630 (NSC839698), RMC-6236 (NSC851965), RMC-6291 (NSC852671), Ro-3306 (NSC812927), sapanisertib (NSC764658), SN-38 (NSC673596), staurosporine (NSC755774), SY5609 (NSC837396), and tovorafenib (DAY101, NSC766906), were obtained from the National Cancer Institute (NCI) Developmental Therapeutics Program Chemical Repository. The FDA-approved anticancer drug set is available from the NCI Developmental Therapeutics Program. […] The stock solutions were prepared in dimethyl sulfoxide (DMSO, Sigma-Aldrich, St. Louis, MO, cat. D2650) at 800-fold the tested concentration and stored at -70 degrees C prior to their use. All drugs and investigational agents were tested over a range starting from a high concentration at or near the clinical Cmax and decreasing in half-log increments. If the clinical Cmax for an agent had not been determined, the highest concentration tested was 10 microM.
Cell Culture. All cells were maintained in an incubator at 37 degrees C and 5% CO2 with 95% humidity. The PDC lines were cultured according to standard operating procedures established by the NCI PDMR. All PDCs were thawed and cultured in Matrigel-coated flasks prepared with a working solution of 1X Ham's F-12 nutrient mix, without supplementation (Invitrogen, Waltham, MA, cat. 11765054), 100 U/mL penicillin-streptomycin (Invitrogen, cat. 15140122), and 2.5% Matrigel (Corning Inc., Corning, NY, cat. 354248) for the first three passages. The 362531-283-R-J2-PDC and 782815-120-R-J1-PDC lines were cultured in 6C/Colon 1B media, which includes advanced DMEM/F-12 (Thermo Fisher Scientific, cat. 12634028), 10 mM HEPES (Thermo Fisher Scientific, cat. 15630080), 1X GlutaMAX supplement (Thermo Fisher Scientific, cat. 35050061), 0.1 mg/mL primocin (InvivoGen, San Diego, CA, cat. ant-pm-2), 10% defined fetal bovine serum, heat inactivated (HyClone Laboratories Inc., Logan, UT, cat. SH30070.03HI), 50% L-WRN conditioned media (ATCC, cat. CRL-3276), 1.25 mM N-Acetyl-L-cysteine (Sigma-Aldrich, cat. A9165), 10 mM nicotinamide (Sigma-Aldrich, cat. N0636), 1X B-27 supplement (Thermo Fisher Scientific, cat. 17504044), 1X N-2 supplement (Thermo Fisher Scientific, cat. 17502048), 50 ng/mL human EGF (Thermo Fisher Scientific, cat. PHG0311), and 10 microM Y-27632 dihydrochloride (Tocris Bioscience, cat. 1254). The K12877-001-R-J1-PDC line was cultured in 6I media, which includes all 6C/Colon 1B media plus 10 ng/mL human FGF-10 (PeproTech, cat. 100-26), 1 ng/mL human FGF-2 (PeproTech, cat. 100-18B), 1 µM prostaglandin E2 (Tocris Bioscience, cat. 2296), […] hydrocortisone (Sigma-Aldrich, cat. H4001), and […] bovine insulin (Sigma-Aldrich, cat. I6634). The K86415-001-R-J1-PDC line was cultured in 6D media, which includes all 6C/Colon 1B media components minus the L-WRN conditioned media. The 485176-168-R4-J1-PDC was cultured in PANC media, which includes all 6C/Colon 1B media plus 100 ng/mL human FGF-10 (PeproTech, cat. 100-26), 500 nM SB-431542 (Selleckchem, cat. S1067), and 10 nM gastrin (Tocris Bioscience, cat. 3006). […]
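Further: spheroids exposed to compounds for 7 days.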
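Wherever viability, T/C is given: 100% = DMSO vehicle control viability.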

In the case of CCc1c2c(nc3ccc(O)cc13)-c1cc3c(c(=O)n1C2)COC(=O)[C@]3(O)CC + C=CC(=O)N1CCN(c2nc(OCC3CCCN3C)nc3c(F)c(-c4nc(N)cc(C)c4C(F)(F)F)c(Cl)cc23)C(C)C1, the IC50 (second compound 0.00316 µM) is reported as < 0.949 nM, the IC50 (second compound 0.01 µM) is reported as < 0.949 nM and the IC50 (second compound 0.0316 µM) is reported as < 0.949 nM. For the same molecule, the IC50 (second compound 0.1 µM) was < 0.949 nM, the IC50 (second compound 0.316 µM) was < 0.949 nM and the IC50 (second compound 1 µM) was < 0.949 nM. For the same molecule, the viability, T/C (second compound 0.00316 µM, first compound 0.000949 µM) was 25.3%, the viability, T/C (second compound 0.00316 µM, first compound 0.003 µM) was 21.1% and the viability, T/C (second compound 0.00316 µM, first compound 0.00949 µM) was 15.8%. For the same molecule, the viability, T/C (second compound 0.00316 µM, first compound 0.03 µM) was 15.9%, the viability, T/C (second compound 0.00316 µM, first compound 0.0949 µM) was 15.2% and the viability, T/C (second compound 0.00316 µM, first compound 0.3 µM) was 11.3%. The viability, T/C (second compound 0.01 µM, first compound 0.000949 µM) was 24.9%, the viability, T/C (second compound 0.01 µM, first compound 0.003 µM) was 20.7% and the viability, T/C (second compound 0.01 µM, first compound 0.00949 µM) was 18.1%. For the same molecule, the viability, T/C (second compound 0.01 µM, first compound 0.03 µM) was 18.3%, the viability, T/C (second compound 0.01 µM, first compound 0.0949 µM) was 12.9% and the viability, T/C (second compound 0.01 µM, first compound 0.3 µM) was 10.9%. It also gave a viability, T/C (second compound 0.0316 µM, first compound 0.000949 µM) of 25.3%, a viability, T/C (second compound 0.0316 µM, first compound 0.003 µM) of 18.3% and a viability, T/C (second compound 0.0316 µM, first compound 0.00949 µM) of 16.8%. The viability, T/C (second compound 0.0316 µM, first compound 0.03 µM) was 14.8%, the viability, T/C (second compound 0.0316 µM, first compound 0.0949 µM) was 15.4% and the viability, T/C (second compound 0.0316 µM, first compound 0.3 µM) was 15.6%. For the same molecule, the viability, T/C (second compound 0.1 µM, first compound 0.000949 µM) was 21.8%, the viability, T/C (second compound 0.1 µM, first compound 0.003 µM) was 15.9% and the viability, T/C (second compound 0.1 µM, first compound 0.00949 µM) was 15.4%. For the same molecule, the viability, T/C (second compound 0.1 µM, first compound 0.03 µM) was 16.2%, the viability, T/C (second compound 0.1 µM, first compound 0.0949 µM) was 14.6% and the viability, T/C (second compound 0.1 µM, first compound 0.3 µM) was 10.9%. For the same molecule, the viability, T/C (second compound 0.316 µM, first compound 0.000949 µM) was 19.1%, the viability, T/C (second compound 0.316 µM, first compound 0.003 µM) was 17.5% and the viability, T/C (second compound 0.316 µM, first compound 0.00949 µM) was 15.6%. It also gave a viability, T/C (second compound 0.316 µM, first compound 0.03 µM) of 14.2%, a viability, T/C (second compound 0.316 µM, first compound 0.0949 µM) of 12.8% and a viability, T/C (second compound 0.316 µM, first compound 0.3 µM) of 12.3%. For the same molecule, the viability, T/C (second compound 1 µM, first compound 0.000949 µM) was 17%, the viability, T/C (second compound 1 µM, first compound 0.003 µM) was 16% and the viability, T/C (second compound 1 µM, first compound 0.00949 µM) was 17.1%. It also gave a viability, T/C (second compound 1 µM, first compound 0.03 µM) of 14%, a viability, T/C (second compound 1 µM, first compound 0.0949 µM) of 14.4% and a viability, T/C (second compound 1 µM, first compound 0.3 µM) of 13.1%.

Source: PubChem BioAssay AID2060901 (Molecular Pharmacology Branch, DTP, NCI, 2025)
